Measured values: patent publication US20060024337A1, “Process for dissolving lipophilic compounds in aqueous solution with amphiphilic block copolymers, and cosmetic composition” (priority 2002, published 2006)
In brackets after ≈: the same amount, converted by molar mass.

Columns and labels:
[1] = Dissolving DHEA in water with amphiphilic block copolymers (film hydration, centrifugation, HPLC assay of supernatant); type: physicochemical; settings: 25 °C, thermodynamic from solid, no polymer ("natural" solubility)
Procedure: (§1) The measurement is performed by UV spectrometry or HPLC on an aqueous solution, prepared beforehand, of from 20 to 80° C. for 2 hours, followed by cooling to 25° C. The assay is performed 24 hours after this preparation on the supernatant obtained after centrifuging the suspension to remove all crystals, or on the pellet in the case of solubilization of oily molecules, the centrifugation resulting in creaming of the portion that is not encapsulated in the micelles.
(§2) The solubility gain is calculated relative to the “natural” solubility of the lipophilic compound in water.

[2] = Dissolving Parsol 1789 in water with amphiphilic block copolymers (film hydration, centrifugation, HPLC assay of supernatant); type: physicochemical; settings: 25 °C, thermodynamic from solid, no polymer ("natural" solubility)
Procedure: as §1
The supernatant, which should not contain any crystals that may be identified using an optical microscope in polarized light, is taken up and then assayed by HPLC.
as §2

Row | Structure (SMILES) | solubility at 24 h [1] [µg/mL] | solubility at 24 h [2] [µg/mL]
1 | C[C@]12CC[C@H](O)CC1=CC[C@@H]1[C@@H]2CC[C@]2(C)C(=O)CC[C@@H]12 [DHEA, dehydroepiandrosterone] | 1 (≈ 3.47 µM) | 
2 | COc1ccc(C(=O)CC(=O)c2ccc(C(C)(C)C)cc2)cc1 [Parsol 1789, 4-(tert-butyl)-4′-methoxydibenzoylmethane] |  | 1 (≈ 3.22 µM)
